Measured values published in ChEMBL document CHEMBL3769336, “Discovery of a Chemical Tool Inhibitor Targeting the Bromodomains of TRIM24 and BRPF” (J Med Chem, 2016).

What was measured:
[1] = target: T1, Transcription intermediary factor 1-alpha (Homo sapiens, UniProt O15164); assay: Inhibition of N-terminal His6-SUMO-1-tagged recombinant human TRIM24 bromodomain expressed in Escherichia coli BL21(DE3)-R3-pRARE2 cells by Alpha Screen assay
T1 sequence (O15164 whole entry): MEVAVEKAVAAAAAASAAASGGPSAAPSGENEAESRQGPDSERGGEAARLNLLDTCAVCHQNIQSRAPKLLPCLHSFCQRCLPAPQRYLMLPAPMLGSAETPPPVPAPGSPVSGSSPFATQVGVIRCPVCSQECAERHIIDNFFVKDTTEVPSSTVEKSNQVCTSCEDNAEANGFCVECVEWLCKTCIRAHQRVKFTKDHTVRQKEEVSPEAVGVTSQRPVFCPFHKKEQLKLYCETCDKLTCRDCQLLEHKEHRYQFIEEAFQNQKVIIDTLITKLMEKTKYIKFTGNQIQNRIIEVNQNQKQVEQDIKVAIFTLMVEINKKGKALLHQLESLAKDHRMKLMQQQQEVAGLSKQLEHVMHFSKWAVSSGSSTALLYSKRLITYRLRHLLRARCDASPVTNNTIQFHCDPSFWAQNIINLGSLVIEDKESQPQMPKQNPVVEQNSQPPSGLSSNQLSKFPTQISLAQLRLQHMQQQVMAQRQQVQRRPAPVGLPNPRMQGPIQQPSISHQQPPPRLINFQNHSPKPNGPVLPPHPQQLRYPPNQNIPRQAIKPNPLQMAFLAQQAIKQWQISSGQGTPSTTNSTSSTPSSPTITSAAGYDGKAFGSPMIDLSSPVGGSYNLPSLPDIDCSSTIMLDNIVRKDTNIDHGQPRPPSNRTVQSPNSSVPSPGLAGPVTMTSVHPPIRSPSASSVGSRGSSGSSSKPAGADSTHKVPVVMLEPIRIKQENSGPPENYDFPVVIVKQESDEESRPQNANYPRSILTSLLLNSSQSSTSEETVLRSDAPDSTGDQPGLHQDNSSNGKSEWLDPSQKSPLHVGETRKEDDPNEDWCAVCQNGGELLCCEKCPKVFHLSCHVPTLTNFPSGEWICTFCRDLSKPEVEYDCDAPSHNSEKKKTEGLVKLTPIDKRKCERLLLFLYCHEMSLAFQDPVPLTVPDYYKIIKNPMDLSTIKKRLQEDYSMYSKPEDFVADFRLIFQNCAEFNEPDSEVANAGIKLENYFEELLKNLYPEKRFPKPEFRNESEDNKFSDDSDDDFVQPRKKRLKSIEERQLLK

Peregrin = target: T2, Peregrin (Homo sapiens, UniProt P55201); assay: Inhibition of BRPF1B (unknown origin) by Alpha Screen assay
T2 sequence (P55201 whole entry): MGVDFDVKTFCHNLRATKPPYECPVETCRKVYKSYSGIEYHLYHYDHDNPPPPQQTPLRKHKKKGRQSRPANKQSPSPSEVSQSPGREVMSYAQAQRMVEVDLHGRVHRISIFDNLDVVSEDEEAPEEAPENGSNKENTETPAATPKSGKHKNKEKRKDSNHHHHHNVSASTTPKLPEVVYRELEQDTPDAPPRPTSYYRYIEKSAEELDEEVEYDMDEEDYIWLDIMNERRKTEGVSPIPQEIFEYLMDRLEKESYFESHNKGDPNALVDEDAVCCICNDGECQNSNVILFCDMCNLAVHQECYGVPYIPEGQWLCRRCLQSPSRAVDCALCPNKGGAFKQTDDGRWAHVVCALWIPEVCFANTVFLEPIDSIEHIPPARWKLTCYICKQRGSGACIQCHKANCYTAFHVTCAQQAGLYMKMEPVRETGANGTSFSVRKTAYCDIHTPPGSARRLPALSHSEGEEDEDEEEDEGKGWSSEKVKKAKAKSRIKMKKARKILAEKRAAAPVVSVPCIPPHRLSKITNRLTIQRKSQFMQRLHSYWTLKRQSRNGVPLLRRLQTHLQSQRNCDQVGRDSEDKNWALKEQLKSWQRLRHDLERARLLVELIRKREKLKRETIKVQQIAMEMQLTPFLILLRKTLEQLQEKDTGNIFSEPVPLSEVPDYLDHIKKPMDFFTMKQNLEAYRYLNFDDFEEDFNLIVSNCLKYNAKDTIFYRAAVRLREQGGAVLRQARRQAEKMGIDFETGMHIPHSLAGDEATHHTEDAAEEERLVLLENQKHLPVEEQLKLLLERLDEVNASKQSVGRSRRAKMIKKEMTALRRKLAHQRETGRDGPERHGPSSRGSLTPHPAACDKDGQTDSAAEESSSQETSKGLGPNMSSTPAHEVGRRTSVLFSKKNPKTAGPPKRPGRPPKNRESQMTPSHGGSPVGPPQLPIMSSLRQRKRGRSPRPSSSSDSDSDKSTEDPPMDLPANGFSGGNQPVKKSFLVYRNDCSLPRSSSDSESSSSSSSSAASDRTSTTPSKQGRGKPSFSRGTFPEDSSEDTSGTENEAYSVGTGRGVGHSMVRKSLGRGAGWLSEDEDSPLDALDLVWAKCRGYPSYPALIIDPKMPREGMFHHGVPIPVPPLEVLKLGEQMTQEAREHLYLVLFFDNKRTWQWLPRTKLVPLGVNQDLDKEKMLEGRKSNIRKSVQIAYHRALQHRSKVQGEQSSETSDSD

[2] = target: T3, Bromodomain-containing protein 1 (Homo sapiens, UniProt O95696); assay: Inhibition of BRPF2 BRD1 (unknown origin) by Alpha Screen assay
T3 sequence (O95696 whole entry): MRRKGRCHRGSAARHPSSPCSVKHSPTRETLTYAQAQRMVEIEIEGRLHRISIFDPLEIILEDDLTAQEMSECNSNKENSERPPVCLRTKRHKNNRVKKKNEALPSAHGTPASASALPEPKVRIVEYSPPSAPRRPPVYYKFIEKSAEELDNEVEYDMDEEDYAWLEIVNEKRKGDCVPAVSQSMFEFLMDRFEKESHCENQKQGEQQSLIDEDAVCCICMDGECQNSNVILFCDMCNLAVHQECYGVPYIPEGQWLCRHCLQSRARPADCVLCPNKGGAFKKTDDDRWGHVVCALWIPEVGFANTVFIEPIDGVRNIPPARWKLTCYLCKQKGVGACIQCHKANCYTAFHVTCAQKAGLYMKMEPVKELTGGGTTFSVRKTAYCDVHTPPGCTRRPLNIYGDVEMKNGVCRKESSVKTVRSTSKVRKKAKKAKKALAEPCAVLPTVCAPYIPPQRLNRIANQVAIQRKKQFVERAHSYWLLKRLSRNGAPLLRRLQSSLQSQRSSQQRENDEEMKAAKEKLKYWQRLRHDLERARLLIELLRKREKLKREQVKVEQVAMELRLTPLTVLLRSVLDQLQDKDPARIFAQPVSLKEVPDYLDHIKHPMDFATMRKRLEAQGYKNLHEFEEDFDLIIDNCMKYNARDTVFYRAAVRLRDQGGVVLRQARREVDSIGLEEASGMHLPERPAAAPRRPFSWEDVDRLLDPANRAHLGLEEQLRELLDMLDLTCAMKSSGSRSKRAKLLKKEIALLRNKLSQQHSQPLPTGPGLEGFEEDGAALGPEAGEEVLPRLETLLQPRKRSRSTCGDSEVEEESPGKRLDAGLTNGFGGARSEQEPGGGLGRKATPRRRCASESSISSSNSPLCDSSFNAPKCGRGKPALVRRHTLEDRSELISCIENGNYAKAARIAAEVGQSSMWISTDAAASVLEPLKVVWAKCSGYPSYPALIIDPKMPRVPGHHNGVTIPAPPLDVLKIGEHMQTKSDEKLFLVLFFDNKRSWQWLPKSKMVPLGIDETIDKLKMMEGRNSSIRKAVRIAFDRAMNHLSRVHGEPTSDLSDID

IC50 [1] [nM] | IC50 (Peregrin) [nM] | IC50 [2] [nM] | SMILES
2700 | 1050 | 3690 | Cc1ccc(S(=O)(=O)Nc2cc3c(cc2Oc2ccccc2)n(C)c(=O)n3C)cc1F
730 | 660 | 2770 | COc1ccc(Oc2cc3c(cc2NS(=O)(=O)c2ccccc2)n(C)c(=O)n3C)cc1
– | – | 1200 | COc1cc2c(cc1NS(=O)(=O)c1ccc(Br)cc1C)n(C)c(=O)n2C
740 | 340 | 1330 | COc1ccc(S(=O)(=O)Nc2cc3c(cc2Oc2ccccc2)n(C)c(=O)n3C)cc1
8400 | 6720 | > 10000 | CCCOc1ccc(S(=O)(=O)Nc2cc3c(cc2Oc2ccc(OC)cc2)n(C)c(=O)n3C)cc1
3420 | 790 | 2420 | Cc1ccc(F)cc1S(=O)(=O)Nc1cc2c(cc1Oc1ccccc1)n(C)c(=O)n2C
480 | 290 | 1210 | COc1ccc(S(=O)(=O)Nc2cc3c(cc2Oc2ccccc2)n(C)c(=O)n3C)cc1OC
6170 | 330 | 2050 | Cn1c(=O)n(C)c2cc(NS(=O)(=O)c3ccc4c(c3)CCCC4)ccc21
> 10000 | 1400 | > 10000 | COC1(C)Oc2cc(S(=O)(=O)Nc3ccc4c(c3)n(C)c(=O)n4C)ccc2O[C@]1(C)OC (stereo not given in full)
3690 | 310 | 2460 | Cn1c(=O)n(C)c2cc(NS(=O)(=O)c3ccc4c(c3)CCC(C)(C)O4)ccc21
2380 | 430 | 1990 | COc1cccc(S(=O)(=O)Nc2cc3c(cc2Oc2ccccc2)n(C)c(=O)n3C)c1
> 10000 | 590 | 6140 | Cc1ccc(S(=O)(=O)Nc2ccc3c(c2)n(C)c(=O)n3C)cc1F
2700 | 2240 | > 10000 | COc1ccc(Oc2cc3c(cc2NS(=O)(=O)c2ccc(C)cc2)n(C)c(=O)n3C)cc1
3450 | 420 | 4300 | CC(C)c1ccc(S(=O)(=O)Nc2ccc3c(c2)n(C)c(=O)n3C)cc1
4630 | 270 | 1600 | Cn1c(=O)n(C)c2cc(NS(=O)(=O)c3ccc4c(c3)CCCO4)ccc21
1270 | 510 | 2920 | Cc1ccc(S(=O)(=O)Nc2cc3c(cc2Oc2ccccc2)n(C)c(=O)n3C)cc1
1470 | 680 | 2380 | COc1ccc(Oc2cc3c(cc2NS(=O)(=O)c2ccccc2C)n(C)c(=O)n3C)cc1
1560 | 270 | 3470 | Cn1c(=O)n(C)c2cc(Oc3ccccc3)c(NS(=O)(=O)c3ccc(Cl)cc3)cc21
2450 | 1170 | 2390 | Cc1cc(Cl)ccc1S(=O)(=O)Nc1cc2c(cc1Oc1ccccc1)n(C)c(=O)n2C
2620 | 430 | 1700 | Cc1ccccc1S(=O)(=O)Nc1cc2c(cc1Oc1ccccc1)n(C)c(=O)n2C
4770 | 3100 | 5160 | Cc1ccc(S(=O)(=O)Nc2cc3c(cc2Oc2ccccc2)n(C)c(=O)n3C)cc1C
770 | 660 | 3580 | COc1ccc(Oc2cc3c(cc2NS(=O)(=O)c2ccc(OC)cc2)n(C)c(=O)n3C)cc1
> 10000 | 290 | 1710 | Cn1c(=O)n(C)c2cc(NS(=O)(=O)c3ccc4c(c3)CCC4)ccc21
> 10000 | 2680 | 2670 | Cn1c(=O)n(C)c2cc(Oc3ccccc3)c(NS(=O)(=O)c3ccc4c(c3)CCCC4)cc21
